± gives the uncertainty stated by the source.
Assay: xn = mol fraction of the nth substance listed

NC=O + C1COCCO1
101 kPa
Conditions	viscosity [mPa·s]
298.15 K, x1 = 0.2556	1.492 ± 0.019
298.15 K, x1 = 0.433	1.849 ± 0.023
298.15 K, x1 = 0.5602	2.219 ± 0.027
298.15 K, x1 = 0.6657	2.564 ± 0.03
298.15 K, x1 = 0.7461	2.863 ± 0.034
298.15 K, x1 = 0.8157	3.094 ± 0.036
298.15 K, x1 = 0.8733	3.26 ± 0.037
298.15 K, x1 = 0.9221	3.361 ± 0.038
298.15 K, x1 = 0.9643	3.363 ± 0.037
313.15 K, x1 = 0.2695	1.138 ± 0.015
313.15 K, x1 = 0.4572	1.383 ± 0.017
313.15 K, x1 = 0.58	1.621 ± 0.02
313.15 K, x1 = 0.6792	1.846 ± 0.022
313.15 K, x1 = 0.7583	2.039 ± 0.024
313.15 K, x1 = 0.8242	2.193 ± 0.025
313.15 K, x1 = 0.8775	2.294 ± 0.025
313.15 K, x1 = 0.9226	2.338 ± 0.026
313.15 K, x1 = 0.9638	2.362 ± 0.025

OCCCO + C1COCCO1
viscosity [mPa·s], 100 kPa
Conditions	x2 = 0.0996	x2 = 0.2019	x2 = 0.2972	x2 = 0.3986	x2 = 0.4989	x2 = 0.5998	x2 = 0.6951	x2 = 0.8062	x2 = 0.9159
293.15 K	38.51 ± 7.7	26.36 ± 5.3	17.15 ± 3.4	10.05 ± 2	5.655 ± 1.1	3.887 ± 0.78	2.715 ± 0.54	2.018 ± 0.4	1.288 ± 0.26
298.15 K	29.32 ± 5.9	20.14 ± 4	12.96 ± 2.6	8.427 ± 1.7	4.847 ± 0.97	3.375 ± 0.68	2.402 ± 0.48	1.806 ± 0.36	1.145 ± 0.23
303.15 K	23.39 ± 4.7	15.44 ± 3.1	10.21 ± 2	6.477 ± 1.3	4.086 ± 0.82	2.968 ± 0.59	2.14 ± 0.43	1.632 ± 0.33	1.053 ± 0.21

OCCCO + CC#N
viscosity [mPa·s], 100 kPa
Conditions	x2 = 0.1027	x2 = 0.2001	x2 = 0.3048	x2 = 0.4057	x2 = 0.5001	x2 = 0.6001	x2 = 0.6993	x2 = 0.8002	x2 = 0.8956
293.15 K	31.4 ± 6.3	19.6 ± 3.9	11.4 ± 2.3	6.84 ± 1.4	4.12 ± 0.83	2.59 ± 0.52	1.59 ± 0.32	0.92 ± 0.18	0.58 ± 0.12
298.15 K	24.7 ± 5	14.5 ± 2.9	8.12 ± 1.6	4.69 ± 0.94	2.89 ± 0.58	1.91 ± 0.38	1.23 ± 0.25	0.73 ± 0.15	0.47 ± 0.09
303.15 K	19.4 ± 3.9	11.2 ± 2.2	5.78 ± 1.2	3.33 ± 0.67	2.21 ± 0.44	1.37 ± 0.27	0.89 ± 0.18	0.58 ± 0.12	0.39 ± 0.08

NC=O + CC(=O)N(C)C
viscosity [mPa·s], 101 kPa
Conditions	298.15 K	308.15 K	318.15 K
x2 = 0.035	3.217 ± 0.14	2.532 ± 0.12	2.077 ± 0.096
x2 = 0.07	3.457 ± 0.15	2.677 ± 0.12	2.18 ± 0.1
x2 = 0.111	3.656 ± 0.16	2.847 ± 0.13	2.286 ± 0.11
x2 = 0.15	3.822 ± 0.17	2.95 ± 0.13	2.357 ± 0.11
x2 = 0.2053	3.966 ± 0.18	3.037 ± 0.14	2.416 ± 0.11
x2 = 0.2414	3.971 ± 0.18	3.057 ± 0.14	2.42 ± 0.11
x2 = 0.3009	3.932 ± 0.17	3.027 ± 0.14	2.389 ± 0.11
x2 = 0.3563	3.789 ± 0.17	2.92 ± 0.13	2.31 ± 0.11
x2 = 0.4177	3.537 ± 0.16	2.741 ± 0.12	2.16 ± 0.1
x2 = 0.458	3.338 ± 0.15	2.594 ± 0.12	2.076 ± 0.096
x2 = 0.5011	3.094 ± 0.14	2.43 ± 0.11	1.953 ± 0.091
x2 = 0.5474	2.826 ± 0.13	2.235 ± 0.1	1.81 ± 0.085
x2 = 0.5912	–	2.028 ± 0.094	–
x2 = 0.5972	2.53 ± 0.12	–	1.65 ± 0.078
x2 = 0.65	2.251 ± 0.1	1.812 ± 0.085	1.505 ± 0.072
x2 = 0.7092	1.916 ± 0.089	1.579 ± 0.075	1.316 ± 0.063
x2 = 0.75	1.72 ± 0.081	1.441 ± 0.069	1.205 ± 0.059
x2 = 0.7948	1.54 ± 0.073	1.289 ± 0.062	1.096 ± 0.054
x2 = 0.891	1.21 ± 0.059	1.035 ± 0.051	0.901 ± 0.045

CN1CCC[C@H]1c1cccnc1 + CC(=O)O
viscosity [mPa·s], 101 kPa
Conditions	298.15 K	323.15 K
x1 = 0.1169	23.04 ± 0.64	7.777 ± 0.21
x1 = 0.1985	74.98 ± 2.1	18.12 ± 0.56
x1 = 0.2129	93.46 ± 2.7	20.8 ± 0.63
x1 = 0.2369	109.9 ± 3.4	21.63 ± 0.69
x1 = 0.2489	111.9 ± 3.5	22.09 ± 0.7
x1 = 0.2602	110.9 ± 3.5	21.72 ± 0.7
x1 = 0.2952	94.15 ± 2.8	19.47 ± 0.61
x1 = 0.3062	86.56 ± 2.5	18.65 ± 0.76
x1 = 0.3711	56.31 ± 1.5	13.21 ± 0.4
x1 = 0.47	24.1 ± 0.65	7.709 ± 0.22
x1 = 0.5888	15.2 ± 0.4	5.208 ± 0.14
x1 = 0.7306	8.751 ± 0.23	3.61 ± 0.098
x1 = 0.8435	7.072 ± 0.18	3.085 ± 0.083

NC=O + CC(=O)O
viscosity [mPa·s]
Conditions	298.15 K	303.15 K	308.15 K	313.15 K
101 kPa, x1 = 0.109	2.001 ± 0.062	–	–	1.462 ± 0.036
101 kPa, x1 = 0.2105	2.855 ± 0.11	–	–	2.029 ± 0.064
101 kPa, x1 = 0.3058	3.481 ± 0.15	–	–	2.361 ± 0.083
101 kPa, x1 = 0.4011	3.864 ± 0.17	–	–	2.589 ± 0.096
101 kPa, x1 = 0.5018	4.217 ± 0.2	–	–	2.791 ± 0.11
101 kPa, x1 = 0.5944	4.341 ± 0.21	–	–	2.904 ± 0.11
101 kPa, x1 = 0.7026	4.316 ± 0.2	–	–	2.903 ± 0.11
101 kPa, x1 = 0.7961	4.146 ± 0.19	–	–	2.899 ± 0.11
101 kPa, x1 = 0.9038	3.824 ± 0.17	–	–	2.589 ± 0.095
101.33 kPa, x1 = 0.0782	1.54 ± 0.08	1.39 ± 0.07	1.28 ± 0.06	1.19 ± 0.06
101.33 kPa, x1 = 0.1552	2.07 ± 0.1	1.84 ± 0.09	1.68 ± 0.08	1.54 ± 0.08
101.33 kPa, x1 = 0.2319	2.63 ± 0.13	2.3 ± 0.12	2.09 ± 0.11	1.89 ± 0.1
101.33 kPa, x1 = 0.3049	3.11 ± 0.16	2.71 ± 0.14	2.43 ± 0.12	2.19 ± 0.11
101.33 kPa, x1 = 0.3832	3.54 ± 0.18	3.06 ± 0.15	2.73 ± 0.14	2.45 ± 0.12
101.33 kPa, x1 = 0.4595	3.85 ± 0.19	3.32 ± 0.17	2.95 ± 0.15	2.65 ± 0.13
101.33 kPa, x1 = 0.5395	4.04 ± 0.2	3.52 ± 0.18	3.08 ± 0.16	2.81 ± 0.14
101.33 kPa, x1 = 0.6155	4.02 ± 0.2	3.5 ± 0.18	3.1 ± 0.16	2.77 ± 0.14
101.33 kPa, x1 = 0.6939	3.97 ± 0.2	3.49 ± 0.18	3.08 ± 0.16	2.75 ± 0.14
101.33 kPa, x1 = 0.7683	3.83 ± 0.19	3.4 ± 0.17	2.97 ± 0.15	2.67 ± 0.13
101.33 kPa, x1 = 0.8477	3.57 ± 0.18	3.1 ± 0.16	2.79 ± 0.14	2.53 ± 0.13
101.33 kPa, x1 = 0.9228	3.36 ± 0.17	2.94 ± 0.15	2.65 ± 0.13	2.4 ± 0.12

CC(=O)[O-].[Na+] + CC(=O)[O-].CC[n+]1ccn(C)c1
Conditions	viscosity [mPa·s]
298.15 K, 101 kPa, x1 = 0.0501	160.5 ± 11

CN1CCC[C@H]1c1cccnc1 + CC(=O)c1ccccc1
viscosity [mPa·s], 101 kPa
Conditions	x1 = 0.1332	x1 = 0.2426	x1 = 0.3782	x1 = 0.4934	x1 = 0.613	x1 = 0.7431	x1 = 0.8402
298.15 K	1.872 ± 0.071	2.198 ± 0.081	2.537 ± 0.092	2.947 ± 0.11	3.238 ± 0.12	3.627 ± 0.13	3.736 ± 0.13
323.15 K	1.162 ± 0.047	1.288 ± 0.051	1.453 ± 0.057	1.551 ± 0.06	1.743 ± 0.067	1.912 ± 0.072	1.962 ± 0.074
